Columns and labels:
[1] = test system: U251 Glioblastoma cell line; experiment: Cytotoxicity assay (MTT, 72 hours, daily administration) in U251; assay type: cell-based; details: Homo sapiens, U-251, read-out: % VIABILITY ± S.D.
Description: The combinations were effective in other human tumor cell lines and we tested in glioblastoma cell line and endometrial cancer cell Additional tests include data obtained from two independent experiments, six wells for dose.

[2] = test system: pancreatic adenocarcinoma associated genes; experiment: TaqMan Array gene expression in MIAPaCa-2, normalized for GAPDH; assay type: cell-based, Human; details: Mia-PACA-2, 24 hs, CBD 3.8, MLT 200, AKBA 7.5 micrograms/ml
Description: Total RNA from untreated or CBD, MLT, AKBA alone and in combination treated cell lines was extracted using Rneasy Mini kit (Qiagen, Milan, Italy). One microgram of total RNA from each sample was subjected to reverse transcription in a total volume of 20 μL using the High-Capacity cDNA Archive Kit (Applied Biosystem, Foster City, […], USA) according to the instructions. cDNAs were analyzed by qRT-PCR performed using an IQ5 Multicolor Real time PCR Detection system. Quantitative real-time gene expression was performed with the TaqMan® Array Human Pancreatic Adenocarcinoma 96-well Plate, containing 92 assays to pancreatic adenocarcinoma associated genes and 4 assays to candidate endogenous control genes, was purchased (Thermo Fisher, Grand Island, NY, USA) and used to evaluate the treatments in modulating PDAC-related genes (Table 1). Measurement of different housekeeping genes (GAPDH; HPRT1; GUSB) on the samples was used to normalize mRNA content. The gene expression levels of treated cell lines were expressed as relative fold compared with untreated or vehicle-treated cells.
To elucidate the molecular events induced by CBD, MLT and AKBA alone and in combination, 92 genes involved in PDAC progression and aggressiveness were evaluated by Taqman Array. Both cell lines were treated with CBD, MLT and AKBA alone and in combination, and the molecular pathways of PDAC associated gene were evaluated.
Target mRNA levels were normalized for GAPDH expression.

PANC-1 cell line = experiment: Cytotoxicity assay (MTT, 72 hours, daily administration) in PANC-1; details: Homo sapiens, PANC-1, read-out: % VIABILITY ± S.D.
Description: Human pancreatic ductal adenocarcinoma (PANC-1 and MIAPaCa-2) cell lines were purchased by Sigma Aldrich (Milan, Italy) and cultured in DMEM high glucose medium (EuroClone, Milan, Italy) supplemented with 10% of fetal bovine serum (FBS), 2 mM L-glutamine, 100 IU/mL penicillin, 100 mg streptomycin and 1 mM sodium pyruvate. Cell lines were maintained at 37° C. with 5% CO2 and 95% of humidity.
3×10^4 cells/mL were seeded in 96-well plates in a final volume of 100 L/well. After one day of incubation, compounds or vehicles, alone or in combination, were added and six replicates were used for each treatment and all experiments were repeated three times. In all the experiments, the treatment was daily added, after washing with fresh medium. After 72 hours cell viability was investigated by adding 0.8 mg/mL of 3-[4,5-dimethylthiazol-2-yl]-2,5 diphenyl tetrazolium bromide (MTT) (Sigma Aldrich) to the media. After 3 h the supernatant was removed, and the pellet of salt crystals was solubilized with 100 μL/well of DMSO. The absorbance of the sample against a background control was measured at 570 nm using an ELISA reader microliter plate (BioTek Instruments, Winooski, VT, USA).
Cytotoxicity in PDAC cell lines: The effect of CBD, MLT and AKBA in reducing cell viability was evaluated at 72 hours, post daily administration, in PDAC cell lines. Cells were treated with different doses of CBD, MLT and AKBA (up to 1 mg) and percentage of cell viability was evaluated by the MTT assay. […] The compounds were administered daily for 72 hours, as in previous experiments at the desired doses. […] MTT assay was used to analyse the cell cytotoxicity.

[3] = normalized for GAPDH, Akt pathways
[4] = normalized for GAPDH, Akt-pathways
[5] = normalized for GAPDH, DNA repair
[6] = normalized for GAPDH, NfkB pathways
[7] = normalized for GAPDH, Ras pathways
[8] = normalized for GAPDH, TGF patways
[9] = normalized for GAPDH, TGF-patways
[10] = normalized for GAPDH, angiogenesis
[11] = normalized for GAPDH, apoptosis
[12] = normalized for GAPDH, cell cycle
[13] = normalized for GAPDH, inflammation
[14] = normalized for GAPDH, proliferation

Compound `COc1ccc2[nH]cc(CCNC(C)=O)c2c1` [MLT, N-[2-(5-methoxy-1H-indol-3-yl)ethyl]acetamide] has a viability at 100 µg/mL [1] of 100 ± 2.3%, a viability at 200 µg/mL [1] of 65.4 ± 4.4% and a viability at 400 µg/mL [1] of 58.2 ± 4.1%. It also gave a viability at 800 µg/mL [1] of 17 ± 1.1%, a GAPDH relative expression ([2]; GAPDH is the normalizer) of 1.00 and a PK3CB relative expression [2, 3] of 0.15. For the same compound, the PK3CD relative expression [2, 3] was 0.07, the AKT1 relative expression [2, 4] was 0.09 and the AKT2 relative expression [2, 4] was 0.55. For the same compound, the AKT3 relative expression [2, 4] was 0.00, the IGF1 relative expression [2, 4] was 0.00 and the PK3CA relative expression [2, 4] was 0.00. The PK3R1 relative expression [2, 4] was 0.03, the BRCA2 relative expression [2, 5] was 0.40 and the MDM2 relative expression [2, 5] was 0.00. It also gave a TP53 relative expression [2, 5] of 0.26, an HSP90AA1 relative expression ([2]; normalized for GAPDH, Heat sock protein) of 0.00 and an NFKB1 relative expression [2, 6] of 0.11. The NFKB2 relative expression [2, 6] was 0.02, the REL relative expression [2, 6] was 0.09 and the RELA relative expression [2, 6] was 0.00. The RELB relative expression [2, 6] was 0.06, the RHOA relative expression [2, 6] was 0.07 and the RHOB relative expression [2, 6] was 0.03. The BRAF relative expression [2, 7] was 0.16, the E2F1 relative expression [2, 7] was 0.16 and the E2F3 relative expression [2, 7] was 0.09. For the same compound, the E2F4 relative expression [2, 7] was 0.19, the EGF relative expression [2, 7] was 0.00 and the EGFR relative expression [2, 7] was 0.19. It also gave an ELK1 relative expression [2, 7] of 0.11, an ERBB2 relative expression [2, 7] of 0.05 and a GRB2 relative expression [2, 7] of 0.28. The HBEGF relative expression [2, 7] was 0.46, the KRAS relative expression [2, 7] was 0.01 and the MAP2K1 relative expression [2, 7] was 0.04. It also gave an MAP2K2 relative expression [2, 7] of 0.09, an MAPK1 relative expression [2, 7] of 0.03 and an MAPK3 relative expression [2, 7] of 0.01. The RAF1 relative expression [2, 7] was 0.07, the RB1 relative expression [2, 7] was 0.03 and the SOS1 relative expression [2, 7] was 0.07. The TGFB2 relative expression [2, 8] was 0.00, the TGFB3 relative expression [2, 8] was 0.00 and the TGFBR1 relative expression [2, 8] was 0.00. It also gave an SMAD2 relative expression [2, 9] of 0.21, an SMAD3 relative expression [2, 9] of 0.24 and an SMAD4 relative expression [2, 9] of 0.09. For the same compound, the TGFA relative expression [2, 9] was 0.20, the TGFB1 relative expression [2, 9] was 0.04 and the TGFBR2 relative expression [2, 9] was 0.00. For the same compound, the FIGF relative expression [2, 10] was 0.14, the VEGFA relative expression [2, 10] was 0.02 and the VEGFB relative expression [2, 10] was 0.04. It also gave a VEGFC relative expression [2, 10] of 0.00, a BCL2L1 relative expression [2, 11] of 0.26 and a BCL2 relative expression [2, 11] of 0.00. The BIRC5 relative expression [2, 11] was 0.16, the CCNA2 relative expression [2, 12] was 0.09 and the CCNB1 relative expression [2, 12] was 0.40. The CCND1 relative expression [2, 12] was 0.12, the CCND2 relative expression [2, 12] was 0.00 and the CCNE1 relative expression [2, 12] was 0.13. For the same compound, the CCNE2 relative expression [2, 12] was 0.09, the CDC42 relative expression [2, 12] was 0.00 and the CDK2 relative expression [2, 12] was 0.09. For the same compound, the CDK4 relative expression [2, 12] was 0.20, the CDKN1A relative expression [2, 12] was 0.08 and the CDKN1B relative expression [2, 12] was 0.11. It also gave a CDKN2A relative expression [2, 12] of 0.20, a CDKN2B relative expression [2, 12] of 1.98 and a CDKN2C relative expression [2, 12] of 0.17. The CDKN2D relative expression [2, 12] was 0.05, the IL6 relative expression [2, 13] was 0.00 and the JAK1 relative expression [2, 13] was 0.02. It also gave a JAK2 relative expression [2, 13] of 0.02, a JAK3 relative expression [2, 13] of 0.00 and an STAT1 relative expression [2, 13] of 0.13. For the same compound, the STAT2 relative expression [2, 13] was 0.00, the STAT3 relative expression [2, 13] was 0.08 and the STAT6 relative expression [2, 13] was 0.01. For the same compound, the STATSB relative expression [2, 13] was 0.49, the MMP1 relative expression ([2]; normalized for GAPDH, invasion) was 0.08 and the MMP2 relative expression ([2]; normalized for GAPDH, invasion) was 0.00. The MMP3 relative expression ([2]; normalized for GAPDH, invasion) was 0.01, the MMP7 relative expression ([2]; normalized for GAPDH, invasion) was 0.01 and the MMP9 relative expression ([2]; normalized for GAPDH, invasion) was 0.04. For the same compound, the PTGS2 relative expression ([2]; normalized for GAPDH, invasion) was 0.03, the RAC1 relative expression ([2]; normalized for GAPDH, invasion) was 0.00 and the RAC2 relative expression ([2]; normalized for GAPDH, invasion) was 0.01. For the same compound, the KIT relative expression [2, 14] was 0.01, the NOTCH1 relative expression [2, 14] was 0.38 and the SRC relative expression [2, 14] was 0.07. The viability at 100 µg/mL (PANC-1 cell line) was 100 ± 5.7%, the viability at 200 µg/mL (PANC-1 cell line) was 97.4 ± 6.1% and the viability at 400 µg/mL (PANC-1 cell line) was 83.9 ± 6.1%. The viability at 800 µg/mL (PANC-1 cell line) was 19.2 ± 1.1%.
